From US12410179B2, “Modulators of TNF alpha activity and uses thereof” (RayThera, Inc., priority 2023, dated 2025) come the findings set out here.

SMILES strings stand for the structures. Read-outs that look alike come from different tables or passages of the source.

In one data set the target is TNFα (Homo sapiens, UniProt P01375). The experiment in a line: HEK-Blue hTNFα reporter assay. It is filed as cell-based. Conditions: HEK-Blue hTNFα reporter cells; for Emax: read-out: TNFα reporter, Emax. Further details: purchased R&D biosystem (R&D Systems) 210-TA-020/CF. In a few lines: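 IC50 from 4-parameter regression of % inhibition, with OD620 of secreted SEAP (QUANTI-Blue, 1 h) referenced to cells with and without hTNFα. HEK-Blue TNFα reporter cells were exposed 24 h to compound premixed 1 h with hTNFα ([…]).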
Sequence of TNFα (P01375 77-233 limits assumed): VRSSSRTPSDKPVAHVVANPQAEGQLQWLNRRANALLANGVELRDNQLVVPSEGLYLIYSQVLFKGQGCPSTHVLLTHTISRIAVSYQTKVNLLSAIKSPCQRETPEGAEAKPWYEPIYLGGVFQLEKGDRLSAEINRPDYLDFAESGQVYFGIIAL
(In general: A reporter such as luciferase makes a cellular process visible.)

Data set [1] can be described thus: Caco-2 assay (permeability). In kind it is in vitro ADME. Conditions: human, Caco-2, pH 7.4; for Papp A→B at 2 h, 5 μM: apical to basolateral; for efflux ratio at 2 h, 5 μM: read-out: Caco-2, ER (efflux ratio). How it is done:
Cells were cultivated for 14-18 days in a cell culture incubator at 37° C., 5% CO2, 95% relative humidity. Cell culture medium was replaced every other day, beginning no later than 24 hours after initial plating.
10 mM stock solutions of test compounds were prepared in DMSO. The stock solutions of positive controls were prepared in DMSO at the concentration of 10 mM.
1) Medium was removed from the reservoir and each Transwell insert and replaced with prewarmed fresh culture medium.
2) Transepithelial electrical resistance (TEER) across the monolayer was measured using Millicell Epithelial Volt-Ohm measuring system (Millipore, USA).
3) The Plate was returned to the incubator once the measurement was done.
1) The Caco-2 plate was removed from the incubator and washed twice with pre-warmed HBSS (10 mM HEPES, pH 7.4), and then incubated at 37° C. for 30 minutes.
The final concentration of DMSO in the incubation system was 0.5%.
3) To determine the rate of drug transport in the apical to basolateral direction.
4) To determine the rate of drug transport in the basolateral to apical direction.
5) The plates were incubated at 37° C. for 2 hours.
6) At the end of the incubation, 50 μL samples from donor sides (apical compartment for Ap→Bl flux, and basolateral compartment for Bl→Ap) and receiver sides (basolateral compartment for Ap→Bl flux, and apical compartment for Bl→Ap) were transferred to wells of a new 96-well plate, followed by the addition of 4 volume of cold methanol containing appropriate internal standards (IS). Samples were vortexed for 5 minutes and then centrifuged at 3,220 g for 40 minutes. An aliquot of 100 μL of the supernatant was mixed with an appropriate volume of ultra-pure water before LC-MS/MS analysis.
100 μL of the Lucifer yellow solution was added to each Transwell insert (apical compartment), followed by filling the wells in the receiver plate (basolateral compartment) with 300 μL of HBSS (10 mM HEPES, pH 7.4).
In general terms: Passage across Caco-2 layers is used to estimate intestinal permeability.

Where [2] appears, read: SEAP readout, read-out: IC50 Range.

Usually Emax stands for the maximal effect, on the per cent scale that the assay sets. One may read the IC50 as the concentration that inhibits the measured activity by half. In general, Papp A→B refers to the apparent permeability from the apical to the basolateral side of a cell layer. On to `CN1C(=O)c2cccc(OC(F)F)c2[C@H]2C[C@@H]1c1nc3ccc(-c4ccc(P(C)(C)=O)nc4)cc3n12` [Comp. Ex #4, reference compound], for which the Emax at TNFα is 82%. The IC50 on TNFα (read-out: TNFα reporter, IC50) came to 7.9 nM. Moreover, in data set [1], the Papp A→B at 2 h, 5 μM is 0.6 ×10⁻⁶ cm/s and the efflux ratio at 2 h, 5 μM came to 47.5.

As for `CN1C(=O)c2cccc(OC(F)F)c2[C@H]2C[C@@H]1c1nn3ccc(-c4ccc(P(C)(C)=O)nc4)cc3c12` [Example 20], the IC50 on TNFα (setting [2]) was under 25 nM. In addition, the maximal response (Emax) at TNFα was determined as 89%. Moreover, at TNFα (read-out: TNFα reporter, IC50), the IC50 was 3.8 nM. Also, in data set [1], the apical-to-basolateral permeability (Papp A→B) at 2 h, 5 μM was found to be 1.7 ×10⁻⁶ cm/s and the efflux ratio at 2 h, 5 μM was 22.8.

On to `[2H]C([2H])([2H])N1C(=O)c2cccc(C#N)c2[C@H]2C[C@@H]1c1nn3cc(F)c(-c4cnc(C5(N)CCC5)nc4)cc3c12` [Example 307], for which, on TNFα (setting [2]), the IC50 fell in the range of 25 to 100 nM.

Regarding `[2H]C([2H])([2H])N1C(=O)c2cccc(C#N)c2[C@H]2C[C@@H]1c1nn3ccc(-c4cnc([C@]5(N)C[C@@](C)(C#N)C5)nc4)cc3c12` [Example 308], the IC50 at TNFα (setting [2]) is under 25 nM.

For `[2H]C([2H])([2H])N1C(=O)c2cccc(C#N)c2[C@H]2C[C@@H]1c1nn3ccc(-c4cnc([C@]5(N)C[C@@](C)(O)C5)c(F)c4)cc3c12` [Example 309], the IC50 at TNFα (setting [2]) was under 25 nM.

Turning to `[2H]C([2H])([2H])N1C(=O)c2cccc(C#N)c2[C@H]2C[C@@H]1c1nn3ccc(-c4cnc(C5(N)CCC5)nc4)nc3c12` [Example 310], at TNFα (setting [2]), the IC50 lay within 25 to 100 nM.

`[2H]C([2H])([2H])N1C(=O)c2cccc(C#N)c2[C@H]2C[C@@H]1c1nn3cc(F)c(-c4cnc([C@]5(N)C[C@@](C)(C#N)C5)nc4)nc3c12` [Example 311]: the IC50 on TNFα (setting [2]) was 25 to 100 nM.

Take `[2H]C([2H])([2H])N1C(=O)c2cccc(C#N)c2[C@H]2C[C@@H]1c1nn3cc(F)c(-c4cnc([C@]5(N)C[C@@](C)(C#N)C5)nc4)cc3c12` [Example 312]: the IC50 at TNFα (setting [2]) is under 25 nM.

In the case of `[2H]C([2H])([2H])N1C(=O)c2cccc(C3CC3)c2[C@H]2C[C@@H]1c1nn3ccc(-c4cnc(C5(N)CCC5)nc4)cc3c12` [Example 313], on TNFα (setting [2]), the IC50 is under 25 nM.

As for `CC(=O)c1cccc2c1[C@H]1C[C@H](c3nn4ccc(-c5cnc(C6(N)CCC6)nc5)cc4c31)N(C)C2=O` [Example 314, (7R,14R)-1-acetyl-12-(2-(1-aminocyclobutyl)pyrimidin-5-yl)-6-methyl-6,7-dihydro-7,14-methanobenzo[c]pyrido[1′,2′:1,5]pyrazolo[4,3-f]azocin-5 (14H)-one], at TNFα (setting [2]), the IC50 was under 25 nM.

As for `Cn1ccc(N2CC=C(c3ccn4nc5c(c4c3)[C@@H]3C[C@H]5NC(=O)c4cccc(OC(F)F)c43)CC2)n1` [Example 315, (7R,14S)-1-(difluoromethoxy)-12-(1-(1-methyl-1H-pyrazol-3-yl)-1,2,3,6-tetrahydropyridin-4-yl)-6,7-dihydro-7,14-methanobenzo[c]pyrido[1′,2′:1,5]pyrazolo[4,3-f]azocin-5 (14H)-one], on TNFα (setting [2]), the IC50 was in the range of 25 to 100 nM.

Turning to `CN1C(=O)c2cccc(OC(F)F)c2[C@H]2C[C@@H]1c1nn3ccc([C@H]4CC[C@@H](OC[C@@H](O)CO)CC4)cc3c12` [Example 316, (7R,14S)-1-(difluoromethoxy)-12-((1R,4R)-4-((S)-2,3-dihydroxypropoxy)cyclohexyl)-6-methyl-6,7-dihydro-7,14-methanobenzo[c]pyrido[1′,2′:1,5]pyrazolo[4,3-f]azocin-5 (14H)-one], the IC50 at TNFα (setting [2]) was under 25 nM.

As to `CN1C(=O)c2cccc(OC(F)F)c2[C@H]2C[C@@H]1c1nn3ccc([C@H]4CC[C@@H](OC[C@H](O)CO)CC4)cc3c12` [Example 317, (7R,14S)-1-(difluoromethoxy)-12-((1S,4R)-4-((R)-2,3-dihydroxypropoxy)cyclohexyl)-6-methyl-6,7-dihydro-7,14-methanobenzo[c]pyrido[1′,2′:1,5]pyrazolo[4,3-f]azocin-5 (14H)-one], the IC50 on TNFα (setting [2]) was under 25 nM.

Regarding `CN1C(=O)c2ccnc(OC(F)F)c2[C@H]2C[C@@H]1c1nn3ccc(-c4cnc([C@]5(O)C[C@@](C)(O)C5)nc4)cc3c12` [Example 320, (7R,14S)-1-(difluoromethoxy)-12-(2-((1s,3R)-1,3-dihydroxy-3-methylcyclobutyl)pyrimidin-5-yl)-6-methyl-6,7-dihydro-7,14-methanopyrido[4,3-c]pyrido[1′,2′:1,5]pyrazolo[4,3-f]azocin-5 (14H)-one], the IC50 at TNFα (setting [2]) was under 25 nM.

Take `CN1C(=O)c2ccc(OC(F)F)nc2[C@H]2C[C@@H]1c1nn3ccc(-c4cnc([C@]5(O)C[C@@](C)(O)C5)nc4)cc3c12` [Example 321, 2-(difluoromethoxy)-12-(2-((1s, 3s)-1,3-dihydroxy-3-methylcyclobutyl)pyrimidin-5-yl)-6-methyl-6,7-dihydro-7,14-methanopyrido[3,2-c]pyrido[1′,2′:1,5]pyrazolo[4,3-f]azocin-5 (14H)-one]: on TNFα (setting [2]), the IC50 was 25 to 100 nM.

Turning to `CN1C(=O)c2c(F)ccc(OC(F)F)c2[C@H]2C[C@@H]1c1nn3ccc(-c4cnc(C5(N)CCC5)nc4)cc3c12` [Example 322, (7R,14S)-12-(2-(1-aminocyclobutyl)pyrimidin-5-yl)-1-(difluoromethoxy)-4-fluoro-6-methyl-6,7-dihydro-7,14-methanobenzo[c]pyrido[1′,2′:1,5]pyrazolo[4,3-f]azocin-5 (14H)-one], the IC50 at TNFα (setting [2]) lay within 25 to 100 nM.

Take `CN1C(=O)c2cccc(OC(F)F)c2[C@H]2C[C@@H]1c1nn3ccc(-c4cnc(C(C)(C)N)nc4)cc3c12` [Example 324]: the IC50 on TNFα (setting [2]) was under 25 nM.

`[2H]C([2H])([2H])N1C(=O)c2cccc(OC(F)F)c2[C@H]2C[C@@H]1c1nn3ccc(-c4cnc(C(C)(C)N)c(F)c4)cc3c12` [Example 325]: the IC50 at TNFα (setting [2]) was under 25 nM.

Regarding `[2H]C([2H])([2H])N1C(=O)c2cccc(OC(F)F)c2[C@H]2C[C@@H]1c1nn3ccc(-c4cnc(C(C)(C)N)c(F)c4)nc3c12` [Example 326], the IC50 at TNFα (setting [2]) is under 25 nM.

On to `[2H]C([2H])([2H])N1C(=O)c2cccc(OC(F)F)c2[C@H]2C[C@@H]1c1nn3ccc(-c4cnc5c(c4)CC[C@]5(C)N)cc3c12` [Example 327], for which, at TNFα (setting [2]), the IC50 is under 25 nM.

Regarding `[2H]C([2H])([2H])N1C(=O)c2cccc(OC(F)F)c2[C@H]2C[C@@H]1c1nn3ccc(-c4cnc5c(c4)CC[C@@]5(C)N)cc3c12` [Example 328], at TNFα (setting [2]), the IC50 is under 25 nM.

Consider `C[C@]1(O)C[C@](N)(c2ncc(-c3ccn4nc5c(c4c3)[C@@H]3C[C@H]5N(C4CC4)C(=O)c4cccc(OC(F)F)c43)cn2)C1` [Example 329], for which the IC50 at TNFα (setting [2]) was under 25 nM.
